Measurements taken from doi:10.64898/2025.12.01.691523v1 (biorxiv, 2025).

Tests used:
bacterioferritin (Bftn) = conditions: buffer not given in main text
AcFtnHCH = AcFtnHCH (Anopheles culicifacies, UniProt A0A182M0V3); assay: biochemical
AcFtnHCH, sequence (A0A182M0V3 21-216): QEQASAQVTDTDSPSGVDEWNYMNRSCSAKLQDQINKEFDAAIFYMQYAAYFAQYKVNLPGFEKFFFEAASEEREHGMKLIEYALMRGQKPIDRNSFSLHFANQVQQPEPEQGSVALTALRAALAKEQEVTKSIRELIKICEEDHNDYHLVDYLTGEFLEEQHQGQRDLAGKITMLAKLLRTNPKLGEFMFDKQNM

C=CC1=C(C)C2=Cc3c(C=C)c(C)c4[n]3[Fe]([Cl])[n]3c(c(C)c(CCC(=O)O)c3=CC3=NC(=C4)C(C)=C3CCC(=O)O)=CC1=N2 [hemin]
Kd (bacterioferritin (Bftn)): 136 ± 21.9 nM | Kd (AcFtnHCH): 67.8 ± 6.5 nM
